# Test results as given in US11612629B2, “Pharmaceutical composition for preventing or treating muscle diseases, containing ginseng berry extract as active ingredient” (Holistic Bio Co., Ltd., priority 2018, dated 2023).
# Key:
# [1] = tested on: muscle atrophy induced mice; assay: Muscle weight (gastrocnemius, quadriceps) per body weight in immobilization-induced muscle atrophy mice; type: in vivo, C57BL/6 mice
# Procedure: (§1) First, 5-week-old male C57BL/6 mice were adapted to the animal laboratory environment for 7 days and then divided into 5 groups according to the experimental conditions. Particularly, the experimental groups were divided into the non-treated control group (normal group, Cont), the group induced with muscle atrophy (induction group, IM), the positive control group induced with muscle atrophy and treated with 370 mg/kg of HMB (beta-hydroxy beta-methlybutyrate) (HMB treated group, HMB 370), the group induced with muscle atrophy and treated with low dose (100 mg/kg) of the Panax ginseng berry extract of Example 1 (Panax ginseng berry extract treated group, GBE 100), and the group induced with muscle atrophy and treated with high dose (200 mg/kg) of the Panax ginseng berry extract of Example 1 (Panax ginseng berry extract treated group, GBE 200). Muscle atrophy was induced by immobilization in which a fixation device made of 1.5 mL microfuge tube, clip and velcro tape was applied to one hind leg of a mouse according to ‘Disease models & mechanisms, 8(9), 1059-1069, 2015’. HMB and the Panax ginseng berry extract were dissolved in 0.5% carboxymethyl cellulose (CMC) and administered to the mouse orally once a day for 14 days from the day of the leg immobilization. After 14 days, the gastrocnemius and quadriceps of the hind leg were extracted, weighed, and standardized based on the body weight.
# [2] = tested on: muscle atrophy induced mice; assay: Muscle fiber size and cross-sectional area of gastrocnemius (H&E, image J) in muscle atrophy induced mice; type: in vivo, C57BL/6 mice; settings: 14 days
# Procedure: as §1
# Whether the Panax ginseng berry extract alleviates the muscle fiber cross-sectional area reduction caused by muscle atrophy was confirmed by the following method. Particularly, the gastrocnemius tissue extracted in Experimental Example 1-1 was fixed with 4% paraformaldehyde, stained with hematoxylin and eosin (H&E), and the muscle fiber cross-sectional area was quantified using image J software.
smiles,measurement,setting,value
"CC(C)(O)CC(=O)O [HMB, beta-hydroxy beta-methlybutyrate]",weight of the quadriceps reduced compared to the normal group,"[1]; 370 mg/kg orally once a day for 14 days, induction group (IM) about 33%",about 17%
same,weight of the gastrocnemius reduced compared to the normal group,"[1]; 370 mg/kg orally once a day for 14 days, induction group (IM) about 40%",about 24%
same,protective ability of muscle atrophy (muscle weight),"[1]; 370 mg/kg orally, 14 days, gastrocnemius and quadriceps",about 16%
same,"muscle atrophy protection, muscle fiber cross-sectional area",[2]; 370 mg/kg orally,about 13%
same,muscle fiber cross-sectional area decreased compared to the normal group,"[2]; 370 mg/kg orally, induction group about 60%",about 47%
same,reduction in muscle fiber size (FIG. 3),"[2]; gastrocnemius, HMB 370 mg/kg, extract 100 and 200 mg/kg orally",alleviated
